The target of experiment [1] is Mast/stem cell growth factor receptor Kit (Homo sapiens) (UniProt P10721). Nature of the experiment: Binding affinity to human KIT.
Experiment [2] concerns the target Angiopoietin-1 receptor (Homo sapiens) (UniProt Q02763). Nature of the experiment: Binding affinity to human TIE2.
Experiment [3] has as its target T1, LIM domain kinase 2 (Homo sapiens, UniProt P53671). Briefly: Inhibition of LIMK2.
Target sequence in this assay (P53671 whole entry, the tested form may be a part): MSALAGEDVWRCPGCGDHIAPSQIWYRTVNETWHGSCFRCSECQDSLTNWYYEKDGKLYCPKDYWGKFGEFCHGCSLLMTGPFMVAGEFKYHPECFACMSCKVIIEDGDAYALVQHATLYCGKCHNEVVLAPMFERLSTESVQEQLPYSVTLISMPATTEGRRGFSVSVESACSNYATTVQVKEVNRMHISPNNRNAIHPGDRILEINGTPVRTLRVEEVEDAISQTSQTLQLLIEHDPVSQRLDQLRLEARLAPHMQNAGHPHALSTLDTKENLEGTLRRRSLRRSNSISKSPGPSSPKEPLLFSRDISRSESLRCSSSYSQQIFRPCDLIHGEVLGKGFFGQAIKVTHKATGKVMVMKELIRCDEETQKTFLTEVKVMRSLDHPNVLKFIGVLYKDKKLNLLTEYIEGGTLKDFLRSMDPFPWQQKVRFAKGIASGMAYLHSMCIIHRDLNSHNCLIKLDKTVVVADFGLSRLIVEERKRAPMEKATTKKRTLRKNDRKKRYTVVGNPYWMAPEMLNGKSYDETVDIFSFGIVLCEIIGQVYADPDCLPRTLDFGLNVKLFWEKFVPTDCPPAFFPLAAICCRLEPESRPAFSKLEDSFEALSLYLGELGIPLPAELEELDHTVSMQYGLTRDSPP
For experiment [4], the system named is HT-1080. Briefly: Cytotoxicity against human HT1080 cells assessed as inhibition of thymidine incorporation. It counts as cell-based. For orientation: Dividing cells build labelled thymidine or BrdU into new DNA.
In experiment [5] the target is T2, LIM domain kinase 1 (Homo sapiens, UniProt P53667). Briefly: Inhibition of LIMK1.
Experiment [6] relates to HT-1080. Briefly: Induction of F-actin depolymerization in human HT1080 cells at 5 uM after 2 days by fluorescein-tagged phalloidin staining. It counts as functional, cell-based.
The target in experiment [7] is Dual specificity testis-specific protein kinase 2 (Homo sapiens, UniProt Q96S53). Nature of the experiment: Inhibition of TESK2.
Experiment [8] addresses Dual specificity testis-specific protein kinase 1 (Homo sapiens, UniProt Q15569). Briefly: Inhibition of TESK1.
The target of experiment [9] is Mitogen-activated protein kinase 14 (Homo sapiens, UniProt Q16539). Nature of the experiment: Binding affinity to human p38alpha.
The target in experiment [10] is Epithelial discoidin domain-containing receptor 1 (Homo sapiens) (UniProt Q08345). Nature of the experiment: Binding affinity to human DDR1.
In experiment [11] the target is T3, TGF-beta receptor type-1 (Homo sapiens) (UniProt P36897).
T3 sequence (whole entry): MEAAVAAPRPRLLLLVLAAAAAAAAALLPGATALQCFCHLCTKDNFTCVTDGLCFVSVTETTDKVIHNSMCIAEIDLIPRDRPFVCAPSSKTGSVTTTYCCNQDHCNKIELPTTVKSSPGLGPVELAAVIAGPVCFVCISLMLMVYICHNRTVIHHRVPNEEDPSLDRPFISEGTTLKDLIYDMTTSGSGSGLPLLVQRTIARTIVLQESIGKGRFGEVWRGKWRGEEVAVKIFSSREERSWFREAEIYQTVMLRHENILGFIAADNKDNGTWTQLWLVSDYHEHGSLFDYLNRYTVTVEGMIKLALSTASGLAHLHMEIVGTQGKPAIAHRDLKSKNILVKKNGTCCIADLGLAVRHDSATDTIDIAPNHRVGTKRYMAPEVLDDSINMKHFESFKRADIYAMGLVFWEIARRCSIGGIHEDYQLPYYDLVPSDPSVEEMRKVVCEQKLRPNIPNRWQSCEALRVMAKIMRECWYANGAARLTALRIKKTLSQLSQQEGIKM
Briefly: Binding affinity to human TGFBR1.

Experiment [12] concerns Mast/stem cell growth factor receptor Kit (Homo sapiens), P10721 [V559D]. Nature of the experiment: Binding affinity to human KIT V559D mutant.
Experiment [13] has as its target T4, Activin receptor type-1B (Homo sapiens) (UniProt P36896).
T4 sequence (whole entry): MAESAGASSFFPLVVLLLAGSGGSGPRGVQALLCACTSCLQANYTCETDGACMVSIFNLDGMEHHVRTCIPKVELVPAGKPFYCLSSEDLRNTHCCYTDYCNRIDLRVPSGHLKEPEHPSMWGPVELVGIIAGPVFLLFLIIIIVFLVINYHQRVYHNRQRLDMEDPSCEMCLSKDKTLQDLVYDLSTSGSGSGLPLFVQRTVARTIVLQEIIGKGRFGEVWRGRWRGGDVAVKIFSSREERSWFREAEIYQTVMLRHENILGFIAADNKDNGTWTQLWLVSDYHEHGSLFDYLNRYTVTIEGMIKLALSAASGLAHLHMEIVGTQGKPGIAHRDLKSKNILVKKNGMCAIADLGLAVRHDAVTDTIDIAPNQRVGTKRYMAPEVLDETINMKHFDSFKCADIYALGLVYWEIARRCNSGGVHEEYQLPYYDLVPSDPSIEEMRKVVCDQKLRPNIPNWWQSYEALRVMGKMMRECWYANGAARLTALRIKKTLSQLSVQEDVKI
Briefly: Binding affinity to human Alk4.

Experiment [14] concerns the target T2, LIM domain kinase 1. Briefly: Inhibition of LIMK1-mediated cofilin Ser3 phosphorylation in human HT1080 cells. It counts as cell-based. The settings on record: HT-1080.
Target sequence in this assay (P53667 whole entry, looked up, the tested form may be a part): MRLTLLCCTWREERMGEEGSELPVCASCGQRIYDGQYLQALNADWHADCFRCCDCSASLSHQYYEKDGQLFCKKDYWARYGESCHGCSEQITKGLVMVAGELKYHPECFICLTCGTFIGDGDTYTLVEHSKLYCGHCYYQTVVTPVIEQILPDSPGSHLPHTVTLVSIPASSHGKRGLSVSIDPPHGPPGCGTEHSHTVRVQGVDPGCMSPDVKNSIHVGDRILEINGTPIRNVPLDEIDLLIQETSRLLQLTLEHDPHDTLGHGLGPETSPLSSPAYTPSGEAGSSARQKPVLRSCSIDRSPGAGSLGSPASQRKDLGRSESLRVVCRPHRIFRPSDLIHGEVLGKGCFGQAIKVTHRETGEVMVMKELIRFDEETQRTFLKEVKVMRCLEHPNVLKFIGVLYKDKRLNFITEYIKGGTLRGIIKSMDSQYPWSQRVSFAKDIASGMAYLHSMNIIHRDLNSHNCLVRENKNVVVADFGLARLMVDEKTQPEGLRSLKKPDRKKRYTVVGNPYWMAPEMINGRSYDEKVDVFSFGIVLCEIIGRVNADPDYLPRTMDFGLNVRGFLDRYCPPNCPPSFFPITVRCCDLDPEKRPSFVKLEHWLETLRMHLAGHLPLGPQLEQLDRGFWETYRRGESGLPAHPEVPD
Experiment [15] addresses T1, LIM domain kinase 2. Nature of the experiment: Binding affinity to human LIMK2.
Target sequence in this assay (P53671 whole entry, looked up, the tested form may be a part): as the sequence (P53671 whole entry, the tested form may be a part) above
In experiment [16] the target is T1, LIM domain kinase 2. Nature of the experiment: Inhibition of LIMK2-mediated cofilin Ser3 phosphorylation in human HT1080 cells. It counts as cell-based. The following applies: HT-1080.
Target sequence in this assay (P53671 whole entry, looked up, the tested form may be a part): as the sequence (P53671 whole entry, the tested form may be a part) above
The target of experiment [17] is T5, Serine/threonine-protein kinase 36 (Homo sapiens) (UniProt Q9NRP7).
T5 sequence (whole entry): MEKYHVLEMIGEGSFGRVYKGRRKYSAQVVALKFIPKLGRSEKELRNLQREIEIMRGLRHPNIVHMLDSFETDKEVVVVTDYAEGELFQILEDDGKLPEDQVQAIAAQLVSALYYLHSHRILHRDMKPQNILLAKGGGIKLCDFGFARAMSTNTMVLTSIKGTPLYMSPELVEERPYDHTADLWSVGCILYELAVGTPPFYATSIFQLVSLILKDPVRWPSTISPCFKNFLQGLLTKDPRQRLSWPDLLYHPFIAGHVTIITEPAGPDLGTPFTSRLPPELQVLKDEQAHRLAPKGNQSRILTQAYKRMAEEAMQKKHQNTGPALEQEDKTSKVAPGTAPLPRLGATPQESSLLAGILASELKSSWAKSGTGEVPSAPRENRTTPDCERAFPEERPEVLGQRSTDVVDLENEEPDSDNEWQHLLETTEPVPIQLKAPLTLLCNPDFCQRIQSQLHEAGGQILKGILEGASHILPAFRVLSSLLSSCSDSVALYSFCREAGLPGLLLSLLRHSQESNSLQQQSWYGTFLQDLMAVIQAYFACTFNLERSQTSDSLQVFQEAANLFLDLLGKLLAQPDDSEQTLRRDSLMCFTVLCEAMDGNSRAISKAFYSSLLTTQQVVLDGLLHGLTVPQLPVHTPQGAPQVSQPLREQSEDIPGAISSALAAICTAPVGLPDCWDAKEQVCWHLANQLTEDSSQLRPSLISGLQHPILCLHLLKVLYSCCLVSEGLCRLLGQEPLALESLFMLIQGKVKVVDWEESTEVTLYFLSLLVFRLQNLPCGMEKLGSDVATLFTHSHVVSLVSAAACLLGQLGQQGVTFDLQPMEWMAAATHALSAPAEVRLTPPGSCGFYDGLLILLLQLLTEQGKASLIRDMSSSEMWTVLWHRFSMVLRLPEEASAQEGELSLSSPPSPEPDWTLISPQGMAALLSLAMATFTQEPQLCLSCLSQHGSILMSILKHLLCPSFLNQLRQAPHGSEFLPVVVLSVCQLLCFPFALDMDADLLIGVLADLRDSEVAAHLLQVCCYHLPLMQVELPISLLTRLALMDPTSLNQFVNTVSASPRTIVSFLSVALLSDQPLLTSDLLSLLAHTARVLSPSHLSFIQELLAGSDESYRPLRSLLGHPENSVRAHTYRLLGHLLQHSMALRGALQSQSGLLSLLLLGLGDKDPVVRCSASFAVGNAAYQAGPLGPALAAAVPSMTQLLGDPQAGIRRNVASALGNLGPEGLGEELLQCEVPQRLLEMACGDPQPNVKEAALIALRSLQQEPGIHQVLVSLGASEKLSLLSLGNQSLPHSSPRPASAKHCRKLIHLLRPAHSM
Nature of the experiment: Binding affinity to human fused kinase.

Each structure is given as a SMILES string. pIC50: −log10 of the molar value. Calls of active or inactive are those of the source. No cut-off for these calls is given here.

Sequence of Dual specificity testis-specific protein kinase 2 (Q96S53 whole entry): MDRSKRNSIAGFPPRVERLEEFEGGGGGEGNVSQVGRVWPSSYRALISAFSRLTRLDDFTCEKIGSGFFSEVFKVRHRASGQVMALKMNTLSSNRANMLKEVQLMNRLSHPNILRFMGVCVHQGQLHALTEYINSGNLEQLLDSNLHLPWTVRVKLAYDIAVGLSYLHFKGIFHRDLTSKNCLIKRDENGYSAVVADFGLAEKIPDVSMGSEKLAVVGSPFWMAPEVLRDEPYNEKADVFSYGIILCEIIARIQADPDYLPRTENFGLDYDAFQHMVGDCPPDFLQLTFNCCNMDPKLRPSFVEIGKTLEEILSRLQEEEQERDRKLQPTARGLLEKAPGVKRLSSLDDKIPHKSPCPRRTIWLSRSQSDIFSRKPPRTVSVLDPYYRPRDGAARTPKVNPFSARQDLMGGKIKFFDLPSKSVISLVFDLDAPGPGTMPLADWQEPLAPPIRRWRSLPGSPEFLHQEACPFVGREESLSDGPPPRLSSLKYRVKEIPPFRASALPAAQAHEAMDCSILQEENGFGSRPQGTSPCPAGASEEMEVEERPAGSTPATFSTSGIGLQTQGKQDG
Sequence of Mast/stem cell growth factor receptor Kit (Homo sapiens) (P10721 whole entry): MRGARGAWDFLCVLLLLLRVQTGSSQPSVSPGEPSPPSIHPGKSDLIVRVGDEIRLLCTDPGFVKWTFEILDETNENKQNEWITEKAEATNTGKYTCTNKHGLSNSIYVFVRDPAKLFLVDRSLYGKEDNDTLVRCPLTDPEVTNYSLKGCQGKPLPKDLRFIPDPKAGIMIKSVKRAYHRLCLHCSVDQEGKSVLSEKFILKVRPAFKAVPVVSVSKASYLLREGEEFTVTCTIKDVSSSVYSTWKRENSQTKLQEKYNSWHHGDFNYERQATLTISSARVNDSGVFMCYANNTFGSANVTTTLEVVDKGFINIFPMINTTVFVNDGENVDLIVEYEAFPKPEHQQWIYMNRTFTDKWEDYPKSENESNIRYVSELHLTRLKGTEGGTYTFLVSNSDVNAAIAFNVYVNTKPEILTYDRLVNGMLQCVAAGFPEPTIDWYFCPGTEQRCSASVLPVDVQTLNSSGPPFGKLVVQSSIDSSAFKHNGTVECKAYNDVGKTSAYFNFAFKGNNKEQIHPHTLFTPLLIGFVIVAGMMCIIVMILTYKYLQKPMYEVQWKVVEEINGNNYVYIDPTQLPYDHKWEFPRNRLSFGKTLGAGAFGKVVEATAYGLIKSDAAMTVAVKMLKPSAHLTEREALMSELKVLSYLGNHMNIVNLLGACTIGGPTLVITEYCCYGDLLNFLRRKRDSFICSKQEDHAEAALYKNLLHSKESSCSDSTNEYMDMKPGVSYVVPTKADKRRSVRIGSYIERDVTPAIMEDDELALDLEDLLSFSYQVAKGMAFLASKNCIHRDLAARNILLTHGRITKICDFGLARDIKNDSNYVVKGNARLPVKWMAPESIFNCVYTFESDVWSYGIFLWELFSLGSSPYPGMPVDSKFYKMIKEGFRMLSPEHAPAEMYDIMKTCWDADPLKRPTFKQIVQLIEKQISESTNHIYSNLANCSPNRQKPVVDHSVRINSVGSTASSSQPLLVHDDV
Sequence of Epithelial discoidin domain-containing receptor 1 (Homo sapiens) (Q08345 whole entry, the tested form may be a part): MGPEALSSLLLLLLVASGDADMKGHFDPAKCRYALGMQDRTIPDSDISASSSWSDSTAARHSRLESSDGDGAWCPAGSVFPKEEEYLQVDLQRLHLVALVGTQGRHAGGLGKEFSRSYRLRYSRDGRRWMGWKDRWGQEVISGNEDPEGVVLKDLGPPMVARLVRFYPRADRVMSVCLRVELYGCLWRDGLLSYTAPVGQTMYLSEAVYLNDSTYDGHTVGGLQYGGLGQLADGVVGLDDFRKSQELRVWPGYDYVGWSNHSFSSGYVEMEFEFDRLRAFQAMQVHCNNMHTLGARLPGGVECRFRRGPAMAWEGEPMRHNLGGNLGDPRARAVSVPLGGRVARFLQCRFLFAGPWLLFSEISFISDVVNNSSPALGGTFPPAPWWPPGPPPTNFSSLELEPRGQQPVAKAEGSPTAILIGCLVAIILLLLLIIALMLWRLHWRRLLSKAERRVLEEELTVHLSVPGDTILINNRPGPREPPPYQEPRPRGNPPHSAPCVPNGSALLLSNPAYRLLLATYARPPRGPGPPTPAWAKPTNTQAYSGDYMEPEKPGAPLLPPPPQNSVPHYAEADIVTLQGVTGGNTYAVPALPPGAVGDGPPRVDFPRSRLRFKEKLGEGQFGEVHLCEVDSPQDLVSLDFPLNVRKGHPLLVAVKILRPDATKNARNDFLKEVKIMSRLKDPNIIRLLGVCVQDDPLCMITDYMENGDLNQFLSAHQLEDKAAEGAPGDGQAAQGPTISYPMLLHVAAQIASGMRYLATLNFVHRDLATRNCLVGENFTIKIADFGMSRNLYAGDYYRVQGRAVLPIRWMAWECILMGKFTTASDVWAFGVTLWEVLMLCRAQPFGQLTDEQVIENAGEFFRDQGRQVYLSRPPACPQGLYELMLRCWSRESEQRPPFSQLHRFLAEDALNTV
Sequence of Dual specificity testis-specific protein kinase 1 (Q15569 whole entry): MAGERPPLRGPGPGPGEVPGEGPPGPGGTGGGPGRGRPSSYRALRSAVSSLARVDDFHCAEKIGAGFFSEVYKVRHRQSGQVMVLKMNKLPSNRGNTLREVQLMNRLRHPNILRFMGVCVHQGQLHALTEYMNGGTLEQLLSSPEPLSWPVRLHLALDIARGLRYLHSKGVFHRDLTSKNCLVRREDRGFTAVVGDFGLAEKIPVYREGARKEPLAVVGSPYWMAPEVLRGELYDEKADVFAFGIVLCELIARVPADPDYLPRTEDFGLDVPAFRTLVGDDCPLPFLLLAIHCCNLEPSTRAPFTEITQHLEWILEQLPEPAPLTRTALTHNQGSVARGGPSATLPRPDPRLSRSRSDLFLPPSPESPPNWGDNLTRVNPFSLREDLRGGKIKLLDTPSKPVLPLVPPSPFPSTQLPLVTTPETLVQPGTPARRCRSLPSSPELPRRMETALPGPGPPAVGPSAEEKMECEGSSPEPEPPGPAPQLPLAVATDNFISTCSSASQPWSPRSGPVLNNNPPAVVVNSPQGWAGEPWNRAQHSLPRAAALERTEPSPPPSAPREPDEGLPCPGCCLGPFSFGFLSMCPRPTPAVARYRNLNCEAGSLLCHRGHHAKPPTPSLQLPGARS

As for `CCNC(=O)Nc1ncc(-c2cc(-c3c(C)cc(OC)cc3C)nc(-c3cnccn3)n2)s1`, the outcome (in [1]; in experiment [2]; in the experiment with HT-1080 [6]; in experiment [10]; in experiment [11]; in experiment [12]) was Active. Besides, the outcome (in experiment [13]; at LIM domain kinase 2 [15]; in experiment [17]) was Active. For the same compound, the pIC50 (commonly −log10 of the IC50, conventionally taken in molar units) against LIM domain kinase 2 [3] is 7.42; with HT-1080 [4] it was < 4.30; against LIM domain kinase 1 [5], 7.24; in experiment [7], 6.60; in experiment [8], 6.34. Moreover, the result in [9] was inactive. Besides, the inhibition entry on LIM domain kinase 1 [14] and on LIM domain kinase 2 [16] was “Dose-dependent effect” each time.

For the origin of these results see ChEMBL document CHEMBL2069273, “Modulation of cofilin phosphorylation by inhibition of the Lim family kinases” (Bioorg Med Chem Lett, 2012).
